Measurements reported in PubChem BioAssay (NCI).
Where “and” joins values, the source holds several entries; their conditions need not be identical. Identical values can stand only once.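 Dose response: 5 concentrations. Exposure: 48 h. Format: 96-well plates. Endpoint: linear interpolation; highest concentration if not reached. At the GI50, growth is halved. TGI denotes the concentration required for complete inhibition of growth.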

Key:
Assay in all cases: NCI tumour cell line growth inhibition, 48 h
MDA-MB-435 = tested on: MDA-MB-435
MDA-N = tested on: MDA-N
DMS 273 small cell lung = tested on: DMS 273 small cell lung
KM20L2 colon = tested on: KM20L2 colon
M19-MEL melanoma = tested on: M19-MEL melanoma
SNB-78 CNS = tested on: SNB-78 CNS
DMS 114 small cell lung = tested on: DMS 114 small cell lung
RXF-631 renal = tested on: RXF-631 renal
XF 498 CNS = tested on: XF 498 CNS

Row | Compound | TGI (MDA-MB-435) [µM] | GI50 (MDA-MB-435) | TGI (DMS 273 small cell lung) [µM] | TGI (KM20L2 colon) [µM] | TGI (M19-MEL melanoma) [µM] | TGI (SNB-78 CNS) [µM] | TGI (DMS 114 small cell lung) [µM] | further results
1 | CNC(c1ccncc1)C(NC)c1ccncc1 (stereo not drawn) | > 100 | – | – | – | – | – | – | TGI (MDA-N): > 100 µM
2 | CCCCCCCCCCSC(=N)N | 4.01 | 1.77 µM | – | – | – | – | – | –
3 | COc1cc(C(C#N)NNc2nc(C)cc(=O)[nH]2)cc(OC)c1OC (stereo not drawn) | – | – | > 100 | > 100 | > 100 | > 100 | – | –
4 | CC(=O)OC(=O)O/C=C\CCl | – | – | > 100 | > 100 | > 100 | > 100 | > 100 | TGI (RXF-631 renal): > 100 µM
5 | COC(=O)C(C(=O)C(N)=O)c1csc(-n2nc(-c3ccccc3)cc2-c2ccccc2)n1 (stereo not drawn) | – | – | > 31.6 | > 31.6 | > 31.6 | > 31.6 | 25.2 | TGI (XF 498 CNS): > 31.6 µM
6 | O=C1CCC(=O)c2sccc2N1 | – | – | > 100 | > 100 | > 100 | > 100 | > 100 | TGI (XF 498 CNS): > 100 µM
7 | Cn1cc(-c2nc(N[C@@H]3CCCC[C@@H]3N)c(F)c3c2C(=O)NC3)cn1 | > 100 | 5.64 µM and 7.4 µM | – | – | – | – | – | –
8 | O=C(/C=C/c1ccco1)c1ccc(Nc2nc(Nc3ccc(F)cc3)nc(Nc3ccc(F)cc3)n2)cc1 | 74.4 | 16.6 µM | – | – | – | – | – | –
9 | O=CCCCC(Sc1ccccc1)Sc1ccccc1 | – | – | 33.9 | > 100 | 39.8 | 37.7 | 49 | TGI (RXF-631 renal): 40 µM; TGI (XF 498 CNS): 42.6 µM
10 | Cc1ccc(S(=O)(=O)NC(CO)C(=O)O)cc1 (stereo not drawn) | > 100 | – | – | – | – | – | – | TGI (MDA-N): > 100 µM
11 | CC(C)N1C(C)[C@@H](c2ccccc2)O[P@]1(=O)CC1=CCCCC1 (stereo partly drawn) | – | – | – | > 100 | > 100 | – | > 100 | TGI (XF 498 CNS): > 100 µM
12 | CCOC(=O)c1c(C)n(Cc2ccccc2)c2c1cc1oc(=O)c(=O)n3cnc2c13 | 32.9 | 10.7 µM | – | – | – | – | – | –
13 | Cc1c(Cl)c(C)c(Cc2c(C)c(Cl)c(C)c(Cl)c2O)c(O)c1Cl | 11.1 | 3.13 µM | – | – | – | – | – | –
14 | O=C(C=C=Nc1ccccc1)C(=O)N=C=Cc1ccccc1 | 8 | 2.33 µM | – | – | – | – | – | –
15 | N#CC(C(=O)CCCC(=O)Nc1ccc(Cl)cc1Cl)c1ccc(Cl)cc1 (stereo not drawn) | – | – | > 100 | > 100 | – | > 100 | – | TGI (RXF-631 renal): > 100 µM; TGI (XF 498 CNS): > 100 µM
16 | O=C(/C=C/c1cccc2ccccc12)Nc1ncc(Cc2ccccc2)s1 | 0.725 | 0.247 µM | – | – | – | – | – | –
17 | H-QIYKKYRTWYRKAWKVLGKV-NH2 | 36.9 | 5.75 µM | – | – | – | – | – | –
18 | O=C(/C=C/C1C(=O)NC(=O)NC1=O)CC(=O)C(=O)Nc1cc(Cl)c(Cl)cc1Cl | – | – | > 100 | > 100 | > 100 | > 100 | > 100 | TGI (XF 498 CNS): > 100 µM

Row | Compound | TGI (MDA-MB-435) [µM] | GI50 (MDA-MB-435) | TGI (DMS 273 small cell lung) [µM] | TGI (KM20L2 colon) [µM] | TGI (M19-MEL melanoma) [µM] | TGI (SNB-78 CNS) [µM] | TGI (DMS 114 small cell lung) [µM] | further results
19 | COc1cc(-c2cc(=O)c3c(O)c(OC)c(OC)c(OC)c3o2)cc(OC)c1OC | > 100 | – | – | – | – | – | – | TGI (MDA-N): > 100 µM
20 | Cc1cc(Nc2nc(-c3ccncc3)nc3ccccc23)n[nH]1 | > 100 | 12.1 µM | – | – | – | – | – | –
21 | [CH3][Sn]1([CH3])[O]CC(COc2cc(Cl)c(Cl)cc2Cl)[O]1 (stereo not drawn) | – | – | > 100 | > 100 | – | > 100 | > 100 | GI50 (DMS 114 small cell lung): 50.1 µM; GI50 (DMS 273 small cell lung): > 100 µM; GI50 (KM20L2 colon): > 100 µM; GI50 (SNB-78 CNS): 49.6 µM; GI50 (XF 498 CNS): 68 µM; TGI (XF 498 CNS): > 100 µM
22 | O=C1/C(=C\c2ccccc2)C2OCC=C3CN4CCC56c7ccccc7N1C5C2C3CC46 (stereo not drawn) | > 100 | 3.59 µM | – | – | – | – | – | –
23 | CC(N1CCOCC1)C(O)(c1ccccc1)c1ccccn1 (stereo not drawn) | > 100 | – | – | – | – | – | – | TGI (MDA-N): > 100 µM
24 | NC(=O)c1ccc(N(C(N)=O)c2c(F)cccc2F)nc1-c1ccc(F)cc1F | > 100 | > 100 µM | – | – | – | – | – | –
25 | C/C(CC(=O)Nc1cccc([N+](=O)[O-])c1)=N\NC(=O)CC#N | – | – | > 100 | > 100 | – | > 100 | > 100 | TGI (RXF-631 renal): > 100 µM; TGI (XF 498 CNS): > 100 µM
26 | O=c1c2ccccc2nc(-c2ccccc2)n1NC(=S)Nc1cccc(Cl)c1 | – | – | > 100 | – | > 100 | – | > 100 | –
27 | CC(=O)Nc1ccc(-c2nnc(SCC(=O)Nc3ccc(Cl)cc3)o2)cc1 | – | – | 40.3 | 33.3 | 45.4 | > 100 | 4.29 | –
28 | c1ccc(-c2ccnc3c2ccc2c(-c4ccccc4)ccnc23)cc1 | – | – | 9.5 | 16.5 | 5.14 | 18 | 12.7 | TGI (RXF-631 renal): 6.19 µM
29 | Cc1cc(Br)cc(C)c1NC(=O)C(=O)Nn1c(=S)[nH]c2ccccc2c1=O | > 100 | – | – | – | – | – | – | TGI (MDA-N): > 100 µM
30 | COc1ccc(C)cc1C1CCC(=O)O1 (stereo not drawn) | – | – | > 100 | > 100 | > 100 | > 100 | > 100 | TGI (XF 498 CNS): 99.2 µM
31 | NS(=O)(=O)c1ccc(NC(=O)c2cccc(NC3=C(Cl)C(=O)N(Cc4ccccc4)C3=O)c2)cc1 | 24.1 | 8.63 µM | – | – | – | – | – | –
32 | C=CC(C)(O)CC/C=C(\CO)C(=O)OC1C(C)OC(O[C@](C)(C=C)CC/C=C(\CO)C(=O)O[C@H]2C[C@@]3(C(=O)OC4OC(CO)C(O)C(O)C4OC4OC(C)C(OC5OC(CO)C(O)C5O)C(OC5OC(CO)C(O)C(O)C5O)C4O)C(CC2(C)C)C2=CCC4[C@@]5(C)CC[C@H](OC6OC(COC7OC(C)C(O)C(O)C7OC7OCC(O)C(O)C7O)C(O)C(O)C6NC(C)=O)C(C)(C)C5CC[C@@]4(C)[C@]2(C)C[C@H]3O)C(O)C1O (stereo partly drawn) | 0.382 | 0.0978 µM | – | – | – | – | – | –
33 | O=Cc1ccc(N2CCN(c3ccc(C=O)cc3)CC2)cc1 | > 100 | > 100 µM | – | – | – | – | – | –
34 | Cc1cc2nc3c4ccc(Br)cc4n(CCN(C)C)c3nc2cc1C | 3.04 | 1.68 µM | – | – | – | – | – | –
35 | O=S1(=O)c2ccccc2N=C(c2ccccc2Cl)CC1c1ccc(F)cc1 (stereo not drawn) | – | – | 45.3 | 37.4 | 31.5 | 40.3 | 41.1 | TGI (XF 498 CNS): 29 µM
36 | Cc1cc2nc(-c3c(F)cccc3Cl)n(Cc3c(F)cccc3Cl)c2cc1C | 22.7 | 7.33 µM | – | – | – | – | – | –
